Data: ChEMBL document CHEMBL1201862, “PubChem BioAssay data set” (2004)
Each block holds one molecule with its values, some of them ahead of it. Active and inactive are the calls of the source.

Key:
Bcl-2-related protein A1 [1] = target: T1, Bcl-2-related protein A1 (Mus musculus, UniProt Q07440); assay: small-molecule antagonists of Bfl-1/BH3 interaction – biochemical, TR-FRET, mouse Bfl-1, confirmation (AID 621);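 further: TR-FRET binding of GST-Bfl-1 to FITC-labelled Bid peptide via terbium antibody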
T1 sequence (Q07440 whole entry): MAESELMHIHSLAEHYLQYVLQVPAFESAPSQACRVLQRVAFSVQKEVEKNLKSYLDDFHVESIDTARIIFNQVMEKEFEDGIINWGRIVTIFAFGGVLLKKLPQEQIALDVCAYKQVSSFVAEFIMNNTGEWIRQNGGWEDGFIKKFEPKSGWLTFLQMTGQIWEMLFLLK

[2] = target: Glyceraldehyde-3-phosphate dehydrogenase (Homo sapiens, UniProt P04406)
Glyceraldehyde-3-phosphate dehydrogenase, sequence (P04406 whole entry): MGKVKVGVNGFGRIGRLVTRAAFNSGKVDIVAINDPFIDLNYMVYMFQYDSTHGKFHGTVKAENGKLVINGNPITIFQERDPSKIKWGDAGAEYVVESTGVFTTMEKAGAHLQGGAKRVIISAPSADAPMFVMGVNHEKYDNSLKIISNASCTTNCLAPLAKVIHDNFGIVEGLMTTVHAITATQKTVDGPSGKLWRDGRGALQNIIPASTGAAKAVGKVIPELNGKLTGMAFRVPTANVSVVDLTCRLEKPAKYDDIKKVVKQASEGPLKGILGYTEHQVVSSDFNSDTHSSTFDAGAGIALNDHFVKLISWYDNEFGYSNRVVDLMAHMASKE

Bcl-2-related protein A1 [3] = target: T1, Bcl-2-related protein A1; assay: Bfl-1 binding inhibitors, SAR follow-up, biochemical, fluorescence polarization (AID 1070)
[4] = antiviral protection against BTV-induced cell death – arbovirus, BSR cells, confirmation (AID 1250); assay type: functional;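 further: protection from viral cytopathic effect measured as cell viability by ATP luminescence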
Insulin-degrading enzyme = target: T2, Insulin-degrading enzyme (Homo sapiens, UniProt P14735); assay: Dose Response: Fluorescence polarization-based cell-based high throughput dose response assay for inhibitors of insulin-degrading enzyme (IDE). [Related pubchem assays: 434962 (Primary screen (IDE inhibitors in singlicate)), 449730 (Counterscreen (Cytotoxicity in triplicate)), 435028 (Confirmation (IDE inhibitors in triplicate)), 434984 (Summary …; assay type: functional
T2 sequence (P14735 whole entry): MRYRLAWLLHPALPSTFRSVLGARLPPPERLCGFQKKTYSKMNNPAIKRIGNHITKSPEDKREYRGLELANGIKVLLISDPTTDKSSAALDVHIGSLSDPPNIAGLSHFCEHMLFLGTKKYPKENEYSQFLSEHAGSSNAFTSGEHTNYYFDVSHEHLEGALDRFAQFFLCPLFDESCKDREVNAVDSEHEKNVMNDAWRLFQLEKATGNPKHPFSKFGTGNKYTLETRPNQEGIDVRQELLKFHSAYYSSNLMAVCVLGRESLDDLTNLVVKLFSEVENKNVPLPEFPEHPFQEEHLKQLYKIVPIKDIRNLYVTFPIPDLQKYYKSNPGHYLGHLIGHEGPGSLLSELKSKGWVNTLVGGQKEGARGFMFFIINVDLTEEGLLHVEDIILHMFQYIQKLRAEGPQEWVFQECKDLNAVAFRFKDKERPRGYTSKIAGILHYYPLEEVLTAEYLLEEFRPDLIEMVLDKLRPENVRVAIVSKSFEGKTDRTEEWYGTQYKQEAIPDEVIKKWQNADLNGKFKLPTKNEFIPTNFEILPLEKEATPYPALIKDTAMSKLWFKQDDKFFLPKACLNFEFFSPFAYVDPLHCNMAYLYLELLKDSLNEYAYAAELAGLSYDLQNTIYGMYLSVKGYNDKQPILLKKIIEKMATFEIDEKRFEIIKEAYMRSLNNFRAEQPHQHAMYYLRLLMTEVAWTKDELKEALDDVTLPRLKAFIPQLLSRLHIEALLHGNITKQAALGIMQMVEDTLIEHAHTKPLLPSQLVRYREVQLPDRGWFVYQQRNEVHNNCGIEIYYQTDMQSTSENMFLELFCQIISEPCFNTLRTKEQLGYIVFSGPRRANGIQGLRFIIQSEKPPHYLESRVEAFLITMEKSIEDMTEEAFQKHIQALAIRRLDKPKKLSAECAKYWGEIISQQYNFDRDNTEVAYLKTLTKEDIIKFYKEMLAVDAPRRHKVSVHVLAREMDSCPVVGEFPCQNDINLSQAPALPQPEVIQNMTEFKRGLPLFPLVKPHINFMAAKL

[5] = Counterscreen for IDE inhibitors: Luminescence-based cell-based high throughput dose response assay to identify compounds that are cytotoxic to HEK cells. [Related pubchem assays: 434962 (Primary screen (IDE inhibitors in singlicate)), 449730 (Counterscreen (Cytotoxicity in triplicate)), 435028 (Confirmation (IDE inhibitors in triplicate)) …; assay type: functional; settings: HEK293
Estrogen receptor = target: T3, Estrogen receptor (Homo sapiens, UniProt P03372); assay: blockers of SRC-3 recruitment to ERα – biochemical, ELISA, streptavidin-HRP readout, orthogonal assay, confirmation (AID 1079)
T3 sequence (P03372 whole entry): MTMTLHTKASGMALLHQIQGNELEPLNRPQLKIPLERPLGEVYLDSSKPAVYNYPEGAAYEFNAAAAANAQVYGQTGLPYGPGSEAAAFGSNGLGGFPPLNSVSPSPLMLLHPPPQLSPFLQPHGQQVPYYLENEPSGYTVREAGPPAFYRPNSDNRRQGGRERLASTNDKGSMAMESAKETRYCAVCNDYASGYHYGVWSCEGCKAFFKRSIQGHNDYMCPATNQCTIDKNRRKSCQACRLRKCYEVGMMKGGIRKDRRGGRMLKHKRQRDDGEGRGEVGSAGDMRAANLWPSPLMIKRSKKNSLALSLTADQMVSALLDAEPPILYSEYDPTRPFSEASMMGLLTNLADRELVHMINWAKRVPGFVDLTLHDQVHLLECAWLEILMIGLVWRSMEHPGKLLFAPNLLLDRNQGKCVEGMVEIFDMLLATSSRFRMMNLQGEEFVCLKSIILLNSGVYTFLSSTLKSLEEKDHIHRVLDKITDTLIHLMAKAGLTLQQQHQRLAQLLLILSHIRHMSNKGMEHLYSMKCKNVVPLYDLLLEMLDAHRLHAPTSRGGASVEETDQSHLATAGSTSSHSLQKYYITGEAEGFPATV

[6] = target: Inward rectifier potassium channel 2 (Mus musculus, UniProt P35561); assay: Manual electrophysiological patch clamp assay for SAR compounds that inhibit/block inward-rectifying potassium ion channel Kir2.1. [Related pubchem assays: 1843 (Summary assay for Kir2.1 inhibitor assays.), 1672 (Primary HTS of 305616 compounds where 2592 were identified as active.)]; assay type: functional
Inward rectifier potassium channel 2, sequence (P35561 whole entry): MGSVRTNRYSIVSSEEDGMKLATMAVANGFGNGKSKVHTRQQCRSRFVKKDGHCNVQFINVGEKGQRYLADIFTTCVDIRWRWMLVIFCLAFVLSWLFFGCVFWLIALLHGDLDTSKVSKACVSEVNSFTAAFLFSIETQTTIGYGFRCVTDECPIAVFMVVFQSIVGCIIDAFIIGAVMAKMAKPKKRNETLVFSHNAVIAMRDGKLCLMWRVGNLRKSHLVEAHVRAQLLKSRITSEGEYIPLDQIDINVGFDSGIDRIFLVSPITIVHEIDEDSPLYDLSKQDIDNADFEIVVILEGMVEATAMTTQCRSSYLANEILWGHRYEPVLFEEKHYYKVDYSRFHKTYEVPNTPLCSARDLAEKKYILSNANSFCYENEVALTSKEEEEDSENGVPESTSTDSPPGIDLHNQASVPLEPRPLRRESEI

[7] = target: Sphingosine 1-phosphate receptor 2 (Homo sapiens, UniProt O95136); assay: Dose Response Cell Based Assay for Agonists of the S1P2 Receptor of Purchased Analogues. [Related pubchem assays: 729, 843, 854, 736 ]; assay type: functional
Sphingosine 1-phosphate receptor 2, sequence (O95136 whole entry): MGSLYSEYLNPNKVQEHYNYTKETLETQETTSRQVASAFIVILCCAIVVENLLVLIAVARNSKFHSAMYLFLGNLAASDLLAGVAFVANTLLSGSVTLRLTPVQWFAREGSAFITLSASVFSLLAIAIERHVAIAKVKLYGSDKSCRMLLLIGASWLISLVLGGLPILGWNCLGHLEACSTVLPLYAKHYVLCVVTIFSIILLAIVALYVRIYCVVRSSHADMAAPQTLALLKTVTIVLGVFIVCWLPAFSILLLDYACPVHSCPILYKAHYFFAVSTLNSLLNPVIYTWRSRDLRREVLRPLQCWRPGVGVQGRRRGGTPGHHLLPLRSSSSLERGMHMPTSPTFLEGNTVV

Compound: CCCC1=NN2C(=N)/C(=C/c3c[nH]c4ccccc34)C(=O)N=C2S1
IC50 [4]: 64.6 µM (active)

Compound: COc1cc(/C=C2\SC(=N)N(c3ccc(F)cc3)C2=O)ccc1O
IC50 (Insulin-degrading enzyme): 29.3 µM (not active)
IC50 [5]: 39.5 µM (not active)

Compound: COc1ccc(CNC2CCCc3ccccc32)cc1 (centres undefined)
IC50 [6]: 3.59 µM (active)

Compound: Cc1cc(C(=O)Cn2cnc3c2c(=O)n(C)c(=O)n3C)c(C)n1Cc1ccccc1
EC50 [7]: > 30 µM (not active)

Next, values leading:

IC50 (Bcl-2-related protein A1 [1]): 6.79 µM (active)
IC50 [2]: > 100 µM (not active)
IC50 (Bcl-2-related protein A1 [3]): 1.25 µM (active)
Compound: COc1ccc(N2CCN(C3=C(Cl)C(=O)N(c4ccc(Cl)c(Cl)c4)C3=O)CC2)cc1

IC50 (Estrogen receptor): 0.08 µM (not active)
Compound: CC(C)(C)OC(=O)[C@@H](CCC(=O)N1CCN(c2ccc(C#N)cc2)CC1)n1c(=S)[nH]c2ccccc2c1=O
